Source: PubChem BioAssay (NCI)
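Five compound concentrations were applied to cells in 96-well plates for 48 hours; endpoints were derived by simple linear interpolation of the resulting dose-response curve. GI50: concentration for 50% inhibition of growth. TGI: concentration producing complete growth inhibition.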

How the values were obtained:
Experiment in all cases: NCI tumour cell line growth inhibition, 48 h
NCI-H522 lung = system: NCI-H522 lung
SN12C renal = system: SN12C renal
SF-539 CNS = system: SF-539 CNS
NCI-H226 lung = system: NCI-H226 lung
HOP-92 NSCLC = system: HOP-92 NSCLC
HCC-2998 colon = system: HCC-2998 colon
HL-60(TB) leukemia = system: HL-60(TB) leukemia
COLO 205 colon = system: COLO 205 colon
SW-620 colon = system: SW-620 colon
LOX IMVI melanoma = system: LOX IMVI melanoma
SF-295 CNS = system: SF-295 CNS
SF-268 CNS = system: SF-268 CNS
NCI-H23 lung = system: NCI-H23 lung
M14 melanoma = system: M14 melanoma
CAKI-1 renal = system: CAKI-1 renal
M19-MEL melanoma = system: M19-MEL melanoma
DLD-1 colon = system: DLD-1 colon
ACHN renal = system: ACHN renal
OVCAR-4 ovarian = system: OVCAR-4 ovarian
EKVX NSCLC = system: EKVX NSCLC
SK-MEL-5 melanoma = system: SK-MEL-5 melanoma
A498 renal = system: A498 renal
DMS 114 small cell lung = system: DMS 114 small cell lung
SNB-19 CNS = system: SNB-19 CNS
SK-MEL-2 melanoma = system: SK-MEL-2 melanoma
XF 498 CNS = system: XF 498 CNS
K-562 leukemia = system: K-562 leukemia
KM20L2 colon = system: KM20L2 colon
HT29 colon = system: HT29 colon
TK-10 renal = system: TK-10 renal
786-0 renal = system: 786-0 renal
SNB-78 CNS = system: SNB-78 CNS
RXF 393 renal = system: RXF 393 renal
SK-OV-3 ovarian = system: SK-OV-3 ovarian
OVCAR-5 ovarian = system: OVCAR-5 ovarian
MOLT-4 leukemia = system: MOLT-4 leukemia
CCRF-CEM leukemia = system: CCRF-CEM leukemia
U251 CNS = system: U251 CNS
LXFL 529 NSCLC = system: LXFL 529 NSCLC
KM12 colon = system: KM12 colon
IGROV1 ovarian = system: IGROV1 ovarian
UO-31 renal = system: UO-31 renal
OVCAR-8 ovarian = system: OVCAR-8 ovarian
SK-MEL-28 melanoma = system: SK-MEL-28 melanoma
RPMI-8226 leukemia = system: RPMI-8226 leukemia
A549 NSCLC = system: A549 NSCLC
OVCAR-3 ovarian = system: OVCAR-3 ovarian
UACC-257 melanoma = system: UACC-257 melanoma
SNB-75 CNS = system: SNB-75 CNS
MALME-3M melanoma = system: MALME-3M melanoma
NCI-H460 lung = system: NCI-H460 lung
HOP-62 NSCLC = system: HOP-62 NSCLC
MDA-N = system: MDA-N
PC-3 prostate = system: PC-3 prostate
NCI/ADR-RES ovarian = system: NCI/ADR-RES ovarian
MCF7 breast = system: MCF7 breast
HCT-116 colon = system: HCT-116 colon
DU-145 prostate = system: DU-145 prostate
BT-549 breast = system: BT-549 breast
T-47D breast = system: T-47D breast
HCT-15 colon = system: HCT-15 colon
UACC-62 melanoma = system: UACC-62 melanoma
HS 578T breast = system: HS 578T breast
MDA-MB-435 = system: MDA-MB-435
SR leukemia = system: SR leukemia
MDA-MB-231 breast = system: MDA-MB-231 breast

## CCOc1ccccc1NC(=O)C1=C(C)NC(C)=C(C(=O)Nc2ccccc2OCC)C1c1ccc2c(c1)OCO2
NCI-H522 lung
  TGI: 29.8 µM
SN12C renal
  TGI: > 100 µM
SF-539 CNS
  TGI: 84.7 µM
NCI-H226 lung
  TGI: > 100 µM
HOP-92 NSCLC
  TGI: 56 µM
HCC-2998 colon
  TGI: 54.9 µM
HL-60(TB) leukemia
  TGI: 45.3 µM
COLO 205 colon
  TGI: > 100 µM
SW-620 colon
  TGI: > 100 µM
LOX IMVI melanoma
  TGI: > 100 µM
SF-295 CNS
  TGI: 74.6 µM
SF-268 CNS
  TGI: > 100 µM
NCI-H23 lung
  TGI: > 100 µM
M14 melanoma
  TGI: 78.2 µM
CAKI-1 renal
  TGI: > 100 µM
M19-MEL melanoma
  TGI: > 100 µM
DLD-1 colon
  TGI: > 100 µM
ACHN renal
  TGI: > 100 µM
OVCAR-4 ovarian
  TGI: 76.2 µM
EKVX NSCLC
  TGI: > 100 µM
SK-MEL-5 melanoma
  TGI: 73.2 µM
A498 renal
  TGI: 84 µM
DMS 114 small cell lung
  TGI: > 100 µM
SNB-19 CNS
  TGI: > 100 µM
SK-MEL-2 melanoma
  TGI: 55.3 µM
XF 498 CNS
  TGI: 49.6 µM
K-562 leukemia
  TGI: 70.3 µM
KM20L2 colon
  TGI: > 100 µM
HT29 colon
  TGI: > 100 µM
TK-10 renal
  TGI: > 100 µM
786-0 renal
  TGI: > 100 µM
SNB-78 CNS
  TGI: 95.6 µM
RXF 393 renal
  TGI: > 100 µM
SK-OV-3 ovarian
  TGI: > 100 µM
OVCAR-5 ovarian
  TGI: > 100 µM
MOLT-4 leukemia
  TGI: 75.3 µM
CCRF-CEM leukemia
  TGI: 85.1 µM
U251 CNS
  TGI: > 100 µM
LXFL 529 NSCLC
  TGI: > 100 µM
KM12 colon
  TGI: 50.7 µM
IGROV1 ovarian
  TGI: > 100 µM
UO-31 renal
  TGI: > 100 µM
OVCAR-8 ovarian
  TGI: > 100 µM
SK-MEL-28 melanoma
  TGI: > 100 µM
RPMI-8226 leukemia
  TGI: > 100 µM
A549 NSCLC
  TGI: > 100 µM
OVCAR-3 ovarian
  TGI: 71.8 µM
UACC-257 melanoma
  TGI: > 100 µM
SNB-75 CNS
  TGI: 35.3 µM
MALME-3M melanoma
  TGI: 83.5 µM
NCI-H460 lung
  TGI: > 100 µM
HOP-62 NSCLC
  TGI: > 100 µM

## O=[N+]([O-])C(/C=C(\Cl)[N+](=O)[O-])=C(Nc1ccccc1)Nc1ccccc1
MDA-N
  TGI: 18.7 µM
NCI-H522 lung
  TGI: 4.55 µM
PC-3 prostate
  TGI: 28.8 µM
NCI/ADR-RES ovarian
  TGI: 58.5 µM
SN12C renal
  TGI: 29.4 µM
SF-539 CNS
  TGI: 24 µM
NCI-H226 lung
  TGI: 27.4 µM
HOP-92 NSCLC
  TGI: 14.4 µM
MCF7 breast
  TGI: 14.6 µM
HCC-2998 colon
  TGI: 37.2 µM
HL-60(TB) leukemia
  TGI: 14.9 µM
COLO 205 colon
  TGI: 23.1 µM
SW-620 colon
  TGI: 11 µM
LOX IMVI melanoma
  TGI: 33.2 µM
SF-295 CNS
  TGI: 31.6 µM
SF-268 CNS
  TGI: 37.7 µM
NCI-H23 lung
  TGI: 23.2 µM
M14 melanoma
  TGI: 22.9 µM
CAKI-1 renal
  TGI: 26.8 µM
HCT-116 colon
  TGI: 4.36 µM
DU-145 prostate
  TGI: 31.7 µM
BT-549 breast
  TGI: 20.7 µM
T-47D breast
  TGI: 37.3 µM
ACHN renal
  TGI: 31.9 µM
HCT-15 colon
  TGI: 22.3 µM
OVCAR-4 ovarian
  TGI: 20.6 µM
EKVX NSCLC
  TGI: 27.4 µM
SK-MEL-5 melanoma
  TGI: 26.2 µM
A498 renal
  TGI: 31.7 µM
UACC-62 melanoma
  TGI: 21.3 µM
SNB-19 CNS
  TGI: 32.8 µM
SK-MEL-2 melanoma
  TGI: 35.8 µM
HS 578T breast
  TGI: 27.7 µM
K-562 leukemia
  TGI: > 29.5 µM
HT29 colon
  TGI: 25.7 µM
TK-10 renal
  TGI: 25.4 µM
786-0 renal
  TGI: 14.3 µM
RXF 393 renal
  TGI: 10.5 µM
SK-OV-3 ovarian
  TGI: 34.5 µM
MDA-MB-435
  TGI: 17.4 µM
OVCAR-5 ovarian
  TGI: 20.1 µM
MOLT-4 leukemia
  TGI: 6.12 µM
CCRF-CEM leukemia
  TGI: 5.36 µM
U251 CNS
  TGI: 27.6 µM
SR leukemia
  TGI: 6.02 µM
KM12 colon
  TGI: 24.3 µM
IGROV1 ovarian
  TGI: 31 µM
UO-31 renal
  TGI: 25.3 µM
MDA-MB-231 breast
  TGI: 26.9 µM
OVCAR-8 ovarian
  TGI: 21.6 µM
SK-MEL-28 melanoma
  TGI: 24.6 µM
RPMI-8226 leukemia
  TGI: 6.35 µM
A549 NSCLC
  TGI: 31.8 µM
OVCAR-3 ovarian
  TGI: 17.3 µM
UACC-257 melanoma
  TGI: 27.1 µM
SNB-75 CNS
  TGI: 14.1 µM
MALME-3M melanoma
  TGI: 21 µM
NCI-H460 lung
  TGI: 30 µM
HOP-62 NSCLC
  TGI: 4.8 µM

## CCOC(=O)c1c(-c2ccc(Cl)cc2)c(C#N)c(=S)n(C2OC(COC(C)=O)C(OC(C)=O)C(OC(C)=O)C2OC(C)=O)c1C (configuration not stated)
MDA-N
  TGI: > 100 µM
NCI-H522 lung
  TGI: > 100 µM
PC-3 prostate
  TGI: > 100 µM
NCI/ADR-RES ovarian
  TGI: > 100 µM
SN12C renal
  TGI: > 100 µM
SF-539 CNS
  TGI: > 100 µM
NCI-H226 lung
  TGI: > 100 µM
HOP-92 NSCLC
  TGI: > 20.1 µM
MCF7 breast
  TGI: > 100 µM
HCC-2998 colon
  TGI: > 100 µM
HL-60(TB) leukemia
  TGI: > 100 µM
COLO 205 colon
  TGI: > 100 µM
SW-620 colon
  TGI: > 100 µM
LOX IMVI melanoma
  TGI: > 100 µM
SF-295 CNS
  TGI: > 100 µM
SF-268 CNS
  TGI: > 100 µM
NCI-H23 lung
  TGI: > 100 µM
M14 melanoma
  TGI: > 100 µM
CAKI-1 renal
  TGI: > 100 µM
HCT-116 colon
  TGI: > 100 µM
DU-145 prostate
  TGI: > 100 µM
BT-549 breast
  GI50: > 100 µM
  TGI: > 100 µM
T-47D breast
  TGI: > 100 µM
ACHN renal
  TGI: > 100 µM
HCT-15 colon
  TGI: > 100 µM
OVCAR-4 ovarian
  TGI: > 100 µM
EKVX NSCLC
  TGI: > 100 µM
SK-MEL-5 melanoma
  TGI: > 100 µM
A498 renal
  TGI: > 100 µM
UACC-62 melanoma
  TGI: > 100 µM
SNB-19 CNS
  TGI: > 100 µM
SK-MEL-2 melanoma
  TGI: > 66 µM
HS 578T breast
  GI50: > 100 µM
  TGI: > 100 µM
K-562 leukemia
  TGI: > 100 µM
HT29 colon
  TGI: > 100 µM
TK-10 renal
  TGI: > 100 µM
786-0 renal
  TGI: > 100 µM
RXF 393 renal
  TGI: > 100 µM
SK-OV-3 ovarian
  TGI: > 100 µM
MDA-MB-435
  TGI: > 100 µM
OVCAR-5 ovarian
  TGI: > 100 µM
MOLT-4 leukemia
  TGI: > 100 µM
CCRF-CEM leukemia
  TGI: > 100 µM
U251 CNS
  TGI: > 100 µM
SR leukemia
  TGI: > 100 µM
KM12 colon
  TGI: > 100 µM
IGROV1 ovarian
  TGI: > 100 µM
MDA-MB-231 breast
  TGI: > 100 µM
OVCAR-8 ovarian
  TGI: > 100 µM
SK-MEL-28 melanoma
  TGI: > 100 µM
RPMI-8226 leukemia
  GI50: 36.1 µM
  TGI: > 100 µM
A549 NSCLC
  TGI: > 100 µM
OVCAR-3 ovarian
  TGI: > 100 µM
UACC-257 melanoma
  TGI: > 100 µM
SNB-75 CNS
  TGI: 99 µM
MALME-3M melanoma
  TGI: > 100 µM
NCI-H460 lung
  TGI: > 100 µM
HOP-62 NSCLC
  TGI: > 100 µM
